# Tests used:
# Format in all cases: biochemical
# recombinant human DPP7 = molecular target: T1, recombinant human DPP7 (Homo sapiens, UniProt Q9UHL4); test: DPP7 inhibition, fluorogenic substrate Lys-Pro-AMC; conditions: recombinant human DPP7
# T1 construct: purchased R&D Systems
# Description: The compounds according to the present technology were evaluated in terms of the inhibitory effect on the activity of dipeptidyl peptidases including FAP by using a substrate producing fluorescent substances upon enzymatic decomposition. The test was conducted at 25° C. to get a final reaction volume of 100 μL in a 96 black well plate. […] Briefly, the test compounds were dissolved in dimethyl sulfoxide (DMSO) at a concentration of 20 mM and then subjected to serial dilution, thereby creating an 8 point curve. As for the control group, a 6 point curve created by serial dilution of Talabostat in the same buffer solution was used. Fluorescence intensity was measured using a microplate reader (Flexstation3, Molecular Devices) under the wavelength condition exciting at 380 nm and reading the emission at 460 nm. The inhibitory effect of the test compounds was measured as a decrease (%) in the signal rate as compared to the control group without any inhibitor. Data was fixed to a logistic model with four variables and IC50 value was calculated using GraphPad Prism program. As for recombinant human DPP4 (R&D Systems), 25 mM tris (pH 8.0) buffer as a buffer solution and H-Gly-Pro-AMC (Bachem) as a substrate were used. As for recombinant human DPP7 (R&D Systems), 25 mM MES (pH 6.0) buffer as a buffer solution and Lys-Pro-AMC (Bachem) as a substrate were used. As for recombinant human DPP8 (PBS Bioscience), as a buffer solution, a 10 mM tris (pH 7.4) buffer comprising 10 mM of magnesium chloride and 0.05% of Tween 20, and Z-Ala-Pro-AMC (BPS Bioscience) as a substrate were used. As for recombinant human DPP9 (R&D Systems), a 25 mM tris (pH 8.0) buffer as a buffer solution and H-Gly-Pro-AMC (Bachem) as a substrate were used. As for recombinant human PREP (R&D System), as a buffer solution, a 25 mM tris (pH 7.5) buffer comprising 250 mM sodium chloride and 2.5 mM DTT (Dithiolthreitol), and Z-Gly-Pro-AMC (Bachem) as a substrate were used. The evaluation was made by using 10 ng of DPP4, PDD7, and PREP, 20 ng of DPP8, and 50 ng of DPP9 based on the final reaction. In the evaluation of DPP4, the test compounds were subjected to serial dilution in a buffer under the condition containing up to 0.1% of DMSO. In the evaluation of DPP7, DPP8, DPP9, and PREP, the test compounds were subjected to serial dilution in each buffer under the condition containing up to 0.5% of DMSO.
# Recombinant human FAP [1] = molecular target: T2, Recombinant human FAP (Homo sapiens, UniProt Q12884); test: FAP FRET assay, FGF21-sequence FRET peptide substrate; conditions: FRET peptide with human FGF21 sequence, 6 μM, 37° C.
# T2 construct: purchased R&D systems
# T2 sequence (Q12884 1-760): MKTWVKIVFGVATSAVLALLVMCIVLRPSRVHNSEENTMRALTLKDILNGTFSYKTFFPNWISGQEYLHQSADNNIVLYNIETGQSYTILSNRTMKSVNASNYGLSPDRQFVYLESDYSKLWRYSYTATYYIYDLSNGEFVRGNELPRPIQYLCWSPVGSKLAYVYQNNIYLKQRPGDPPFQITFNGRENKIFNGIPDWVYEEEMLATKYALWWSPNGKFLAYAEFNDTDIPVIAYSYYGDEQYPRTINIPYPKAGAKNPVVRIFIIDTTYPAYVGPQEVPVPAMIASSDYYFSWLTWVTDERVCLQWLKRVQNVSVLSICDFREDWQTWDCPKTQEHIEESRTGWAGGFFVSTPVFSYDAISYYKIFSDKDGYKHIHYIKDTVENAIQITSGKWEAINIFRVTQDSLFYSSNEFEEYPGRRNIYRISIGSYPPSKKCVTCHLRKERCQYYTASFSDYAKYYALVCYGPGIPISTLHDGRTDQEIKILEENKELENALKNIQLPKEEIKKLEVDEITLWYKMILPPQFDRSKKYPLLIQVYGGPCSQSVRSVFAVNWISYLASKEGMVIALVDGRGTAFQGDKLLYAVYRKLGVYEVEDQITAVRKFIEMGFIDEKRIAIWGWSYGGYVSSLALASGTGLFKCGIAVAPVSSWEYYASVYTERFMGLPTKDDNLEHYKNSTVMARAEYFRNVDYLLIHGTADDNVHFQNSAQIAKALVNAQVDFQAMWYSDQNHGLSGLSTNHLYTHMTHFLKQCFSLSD
# Method in brief: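 Recombinant human FAP, 10 ng per reaction, in 50 mM HEPES pH 7.2 with 150 mM NaCl, 0.1 mg/ml BSA, 1 mM EDTA; HyLite Fluor 488/QXL 520 FRET peptide of human FGF21 sequence at 6 μM final, ≤0.1% DMSO, 37° C. IC50 from 8-point curves by four-parameter logistic fit.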
# DPP4 = DPP4 (Homo sapiens, UniProt P27487); test: DPP4 inhibition, fluorogenic substrate H-Gly-Pro-AMC; parameters: purchased R&D Systems; conditions: recombinant human DPP4
# Chain of DPP4 (P27487 whole entry): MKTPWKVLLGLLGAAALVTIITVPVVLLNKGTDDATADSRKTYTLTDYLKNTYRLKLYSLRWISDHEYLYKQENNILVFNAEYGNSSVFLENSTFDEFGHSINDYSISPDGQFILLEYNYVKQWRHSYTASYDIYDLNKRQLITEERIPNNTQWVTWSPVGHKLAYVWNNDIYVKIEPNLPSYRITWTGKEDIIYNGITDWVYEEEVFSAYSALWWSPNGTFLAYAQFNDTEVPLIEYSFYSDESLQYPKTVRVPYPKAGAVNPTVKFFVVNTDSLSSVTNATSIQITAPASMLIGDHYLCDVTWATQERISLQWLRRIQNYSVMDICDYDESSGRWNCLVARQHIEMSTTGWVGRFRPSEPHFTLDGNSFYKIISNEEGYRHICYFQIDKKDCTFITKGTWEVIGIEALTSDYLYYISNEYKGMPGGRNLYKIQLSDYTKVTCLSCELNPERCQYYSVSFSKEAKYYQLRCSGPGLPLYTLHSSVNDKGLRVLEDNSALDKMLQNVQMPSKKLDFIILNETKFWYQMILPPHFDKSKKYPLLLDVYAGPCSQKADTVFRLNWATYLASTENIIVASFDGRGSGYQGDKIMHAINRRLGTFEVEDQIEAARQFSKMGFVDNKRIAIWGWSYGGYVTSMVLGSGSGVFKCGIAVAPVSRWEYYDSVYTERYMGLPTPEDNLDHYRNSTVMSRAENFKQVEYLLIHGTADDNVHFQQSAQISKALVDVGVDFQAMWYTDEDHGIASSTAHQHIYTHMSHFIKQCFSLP
# Recombinant human FAP [2] = molecular target: T2, Recombinant human FAP; test: FAP inhibition, fluorogenic substrate Z-Gly-Pro-AMC; conditions: recombinant human FAP, substrate Z-Gly-Pro-AMC
# Method in brief: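 Recombinant human FAP, 10 ng per reaction, in 50 mM Tris pH 7.5 with 1 M NaCl and 1 mg/ml BSA at 25° C; substrate Z-Gly-Pro-AMC, ≤0.1% DMSO. AMC fluorescence read at ex 380/em 460 nm; % signal-rate decrease vs no-inhibitor control, 8-point curves fitted to a four-parameter logistic for IC50.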
Structure (SMILES),IC50 (recombinant human DPP7) [nM],IC50 (Recombinant human FAP [1]) [nM],IC50 (DPP4) [nM],IC50 (Recombinant human FAP [2]) [nM]
"N#C[C@@H]1C[C@H](F)CN1C(=O)CN1CC[C@@H](Nc2cnc3ncccc3c2)C1 [Example 171, (2S,4S)-4-fluoro-1-[2-[(3R)-3-(1,8-naphthyridin-3-ylamino)pyrrolidin-1-yl]acetyl]pyrrolidine-2-carbonitrile]",2790,8.2,2190,
"N#C[C@@H]1C[C@H](F)CN1C(=O)CN1CC[C@H](Nc2ccc(C(=O)Nc3ccccc3)c3ncccc23)C1 [Example 283, N-phenyl-5-[[(3S)-1-[2-oxo-2-[(2S,4S)-2-cyano-4-fluoro-pyrrolidin-1-yl]ethyl]pyrrolidin-3-yl]amino]quinoline-8-carboxamide]",74.3,1,1210,
"N#C[C@@H]1C[C@H](F)CN1C(=O)CN1CCC(Nc2ccnc3c(Cl)cccc23)CC1 [Example 344, (2S,4S)-1-[2-[4-[(8-chloro-4-quinolyl)amino]-1-piperidyl]acetyl]-4-fluoro-pyrrolidine-2-carbonitrile]",4610,6,≥ 100000,
"N#C[C@@H]1CCCN1C(=O)CN1CC[C@H](Nc2cccc3ncc(F)cc23)C1 [Example 234, (2S)-1-[2-[(3S)-3-[(3-fluoro-5-quinolyl)amino]pyrrolidin-1-yl]acetyl]pyrrolidine-2-carbonitrile]",6080,1.6,63600,1.3
"N#C[C@@H]1C[C@H](F)CN1C(=O)CN1CCC(Oc2ccnc3c(F)cccc23)CC1 [Example 435, (2S,4S)-4-fluoro-1-[2-[4-[(8-fluoro-4-quinolyl)oxy]-1-piperidyl]acetyl]pyrrolidine-2-carbonitrile]",6560,3.2,4830,
"Cc1ccc(NC2CCN(CC(=O)N3C[C@@H](F)C[C@H]3C#N)CC2)c2cccnc12 [Example 331, (2S,4S)-4-fluoro-1-[2-[4-[(8-methyl-5-quinolyl)amino]-1-piperidyl]acetyl]pyrrolidine-2-carbonitrile]",,6.5,5110,3.8
"N#C[C@@H]1CCCN1C(=O)CN1CC[C@@H](Nc2cccc3ncc(F)cc23)C1 [Example 209, (2S)-1-[2-[(3R)-3-[(3-fluoro-5-quinolyl)amino]pyrrolidin-1-yl]acetyl]pyrrolidine-2-carbonitrile]",7010,1.7,4430,
"N#C[C@@H]1CCCN1C(=O)CN1CCC(Oc2cccc3ncc(F)cc23)CC1 [Example 429, (2S)-1-[2-[4-[(3-fluoro-5-quinolyl)oxy]-1-piperidyl]acetyl]pyrrolidine-2-carbonitrile]",3970,6.9,37200,
"N#C[C@@H]1C[C@H](F)CN1C(=O)CN1CCC(Nc2ccc(F)c3ncccc23)CC1 [Example 330, (2S,4S)-4-fluoro-1-[2-[4-[(8-fluoro-5-quinolyl)amino]-1-piperidyl]acetyl]pyrrolidine-2-carbonitrile]",,6.3,3290,2.8
"N#C[C@@H]1C[C@H](F)CN1C(=O)CN1CC[C@H](Nc2ccc(C(=O)Nc3ccccn3)c3ncccc23)C1 [Example 294, N-(2-pyridyl)-5-[[(3S)-1-[2-oxo-2-[(2S,4S)-2-cyano-4-fluoro-pyrrolidin-1-yl]ethyl]pyrrolidin-3-yl]amino]quinoline-8-carboxamide]",16.6,0.6,439,
"N#C[C@@H]1C[C@H](F)CN1C(=O)CN1CC[C@@H](Nc2ccc(F)c3ncccc23)C1 [Example 175, (2S,4S)-4-fluoro-1-[2-[(3R)-3-[(8-fluoro-5-quinolyl)amino]pyrrolidin-1-yl]acetyl]pyrrolidine-2-carbonitrile]",4240,3.5,1690,
"N#Cc1ccc2c(OC3CCN(CC(=O)N4C[C@@H](F)C[C@H]4C#N)CC3)cccc2n1 [Example 417, 5-[[1-[2-oxo-2-[(2S,4S)-2-cyano-4-fluoro-pyrrolidin-1-yl]ethyl]-4-piperidyl]oxy]quinoline-2-carbonitrile]",,6.5,5470,3.3

# Reference: patent publication US11655235B2, “Pyrrolidine and piperidine compounds” (YUHAN CORPORATION, priority 2019, dated 2023)
